According to US10087465B2, “Trans-acting elements for intracellular delivery of nucleic acid sequences” (The United States of America, as Represented by the …, priority 2014, dated 2018):
Entries after “also recorded” stand apart in the source; their conditions may differ. {NH2} = C-terminal amide of the PNA; {F1} = fluorescein label

Columns and labels:
Type in all cases: cell-based
HeLa pLuc 705 cells = experiment: Endocytic pathway assays; conditions: dTtaPS-mediated uptake of PNA oligomer 10, chlorpromazine 30 μM, nystatin 50 μM, EIPA 1 mM
Description: Endocytic pathway assays: HeLa pLuc 705 cells were seeded in a 96-well plate and grown in 10% FBS-DMEM as described above. The cell culture was then pre-incubated for 30 min at 37° C. in the presence of chlorpromazine, nystatin or 5-(N-ethyl-N-isopropyl)amiloride (EIPA), the final concentration of which was 30 μM, 50 μM or 1 mM, respectively. A 2× solution of PNA oligomer 10:dTtaPS complex was added to the cells to provide an oligomer and dTtaPS final concentration of 1.0 μM and 2.0 μM, respectively. The cells were then incubated for an additional 30 min at 37° C., whereupon luciferase activity was measured as described above in the Luciferase assay protocol. Luminescence measurements were normalized to the amounts of protein present in the test samples and reported as percent luminescence remaining relative to that of the experiment performed in the absence of endocytic pathway inhibitors.

[1] = system: HEK 293, HeLa, HeLa pLuc705, MCF7 and SK—N—SH live cells; experiment: Flow cytometry (FACS) analysis of cellular uptake of fluorescently-labeled PNA or PMO oligomers in live cells; conditions: for PS-dT8[3+] (dTtaPS)-mediated delivery of fluoresceinated PMO oligomers: PMO oligomer 1 μM, PS-dT8[3+] 2 μM, all cell lines, FIG. 17; for PS-dT8[3+] (dTtaPS)-mediated cellular internalization of fluoresceinated PNA oligomers: in the presence of PS-dT8[3+], oligomer 1 μM, all cell lines under study, FIG. 11
Description: (§1) Complex formation between PNA or PMO oligomers and dTtaPS or dAtaPS: Appropriate amounts of PNA or PMO oligomers were diluted in serum-free OptiMEM™ (20 μl). dTtaPS or dAtaPS was added to the oligomer solution to achieve a final concentration that is twice that of the oligomer. After 30 min incubation at 37° C., the PNA or PMO oligomer: dTtaPS or dAtaPS complexes were stored at 4° C. for 15 minutes or until used. Stock solutions (2×) of the complexes were made by adding OptiMEM™ to appropriate volumes.
Flow cytometry analysis of cellular uptake in live cells: The internalization of fluorescently-labeled PNA or PMO sequences (Table 1) in HEK 293, HeLa, MCF7 and SK—N—SH cells was assessed by flow cytometry. Cells were seeded in a 96-well plate (10^4 cells/well) and allowed to grow at 37° C. for 24 h in 10% FBS-MEM. The culture medium of each well was then replaced with fresh medium (100 μl) containing any of the fluorescently-labeled PNA or PMO sequences, the final concentration of which was 1 μM. After an incubation of 18 h at 37° C., the medium was removed from each well by suction and 0.25% Trypsin (50 μl) was added. Upon complete cell detachment, a solution (100 μl) of ice-cold 2% FBS in phosphate-buffered saline (PBS, pH 7.4) was added to each well. The cells were collected into tubes, to which was added 0.4% Trypan blue (50 μl) and 200 µM monensin (20 μl), and analyzed by fluorescence-activated cell sorting (FACS) using a BD FACScan™ flow cytometer. A total of 5000 events were counted and the results were reported as a percentage of the cells that have internalized the fluorescently-labeled oligomers.

HeLa pLuc705 cells = experiment: Luciferase splice correction assay; conditions: for luciferase activity (splice correction) upon PS-dT8[3+] (dTtaPS)-assisted delivery of PNA oligomers: FIG. 12, 13, 15; for luciferase activity / internalization upon PS-dA8[3+] (dAtaPS)-mediated delivery of PNA oligomers: PS-dA8[3+] 2.0 μM, compared with PS-dT8[3+]:10 complex, FIG. 16
Description: The efficiency of PS-dT8[3+] in the cellular uptake of polyA-tailed PNA oligomers was assessed through the luciferase splice correction assay in which the mutated intron 2 of the human β-globin gene has been inserted within the coding sequence of a luciferase reporter gene (pLuc705). The activation of a cryptic splice site in this intron leads to a defective luciferase enzyme. In the presence of a PNA oligomer complementary to the aberrant splice site, correct splicing is restored and results in an active luciferase. A concentration-dependence of splice correction activity by PS-dT8[3+]-mediated internalization of the PNA oligomer 10 in HeLa pLuc705 cells is shown in FIG. 12.
as §1
Luciferase assay protocol: HeLa pLuc 705 cells were seeded in a 96-well plate (2×10^4 cells/well) and allowed to grow at 37° C. for 18 h in 10% FBS-DMEM. The culture medium of each well was then replaced with either fresh serum-free or 20% serum-containing OptiMEM™ (50 μl) for experiments intended to be performed in serum-free or in 10% serum-containing media. A 2× solution of PNA or PMO oligomer:dTtaPS or dAtaPS complexes (50 μl) was added to the cells in order to achieve pre-determined complex concentrations, as indicated in the Figures. After a 4-hour incubation at 37° C., 20% FBS in OptiMEM™ (100 μl was added to serum-free experiments and cells were incubated for an additional 18 h at 37° C. The media was then removed by suction and the cells were mixed with a cell lysis reagent (50 μl) and agitated at ambient temperature for 10 minutes. The cell lysate (30 μl) was placed in a white 96-well plate and Bright-Glo™ reagent (20 μl) was added. Luciferase activity was measured using a microplate reader. For each well, luminescence was integrated over a period of 1 sec and recorded as relative light units (RLU). Luminescence measurements were normalized to the amount of protein present in the test sample.
Appropriate amounts of PNA/PMO oligomers were diluted in OptiMEM™ (20 μL) to achieve the concentration of 1 μM or as indicated in the Figures. PS-dT8[3+] or PS-dAs[3+] was added to the above oligomer solutions. After a 30 min incubation at 37° C., the PNA/PMO oligomer:PS-dT8[3+] or PS-dA8[3+] complexes were removed and kept at 4° C. for 15 minutes or until used. Stock solutions of the complexes were made by adding OptiMEM™ to appropriate volumes.
Luciferase Assay: Prior to performing experiments, HeLa pLuc 705 cells were seeded in a 96-well plate (2×10^4 cells/well) and allowed to grow at 37° C. for 18 h in 10% FBS DMEM. The culture medium of each well was then replaced with either fresh 50 μL serum free or 20% serum-containing OptiMEM™ for experiments intended to be performed in serum free or in 10% serum-containing media. A 2× solution of the PNA/PMO oligomer:PS-dT8[3+] or PS-dAs[3+] complexes (50 μL) was added to the cells in order to achieve a pre-determined concentration as indicated in the figures. After a 4-hour incubation at 37° C., 20% FBS in OptiMEM (100 μL) was added to serum free experiments and cells were incubated for an additional 18 h at 37° C. The media was then removed by suction and the cells were mixed with a cell lysis reagent (50 μL) and agitated at ambient temperature over a period of 10 minutes. The cell lysate (30 μL) was placed in white 96-well plate and Bright-Glow™ reagent (20 μL) was added. Luciferase activity was measured using a microplate reader. […]

For `CCN(c1nc(N)c(C(=O)N=C(N)N)nc1Cl)C(C)C` [EIPA, 5-(N-ethyl-N-isopropyl)amiloride], the “inhibition of luciferase production by endocytic pathway inhibitor” value (HeLa pLuc 705 cells) was roughly 95%.
`C[C@@H]1[C@H](O)[C@@H](C)/C=C/C=C/CC/C=C/C=C/C=C/C=C/C(O[C@H]2O[C@H](C)[C@@H](O)[C@H](N)[C@@H]2O)CC2O[C@](O)(CC(O)C(O)CCC(O)CC(O)CC(O)CC(=O)O[C@H]1C)CC(O)C2C(=O)O` (stereo partly shown) [Nystatin, nystatin] was tested, and the “inhibition of luciferase production by endocytic pathway inhibitor” value (HeLa pLuc 705 cells) was “did not inhibit”.
Compound `CN(C)CCCN1c2ccccc2Sc2ccc(Cl)cc21` [chlorpromazine] has an inhibition at 30 µM (HeLa pLuc 705 cells; Homo sapiens, HeLa, read-out: inhibition of luciferase production by endocytic pathway inhibitor) of roughly 40%.
For “PMO oligomer 19: commercial PMO, GTGGCCGTTTACGTCGCC-AAAAAA-F1, SEQ ID NO. 13 (GTGGCCGTTTACGTCGCCAAAAAA; PMO, F1 label, chemistry not fully specified)”, the “PS-dT8[3+] (dTtaPS)-mediated delivery of fluoresceinated PMO oligomers” value ([1]; listed as 19) was “confirmed the dTtaPS-assisted delivery”.
“PMO oligomer 20: commercial PMO, CCTCTTACCTCAGTTACA-F1, SEQ ID NO. 14 (all phosphorodiamidate morpholino (PMO), 3' {F1})” was tested, and the “PS-dT8[3+] (dTtaPS)-mediated delivery of fluoresceinated PMO oligomers” value [1] was “reduced to that of the medium”.
“PMO oligomer 24: commercial PMO, CCTCTTACCTCAGTTACA-AATAAA, SEQ ID NO. 18 (CCTCTTACCTCAGTTACAAATAAA; all phosphorodiamidate morpholino (PMO))” was tested, and the “luciferase activity upon PS-dT8[3+] (dTtaPS)-assisted internalization of PMO oligomers” value (HeLa pLuc705 cells; PMO oligomer 1 μM, PS-dT8[3+] 2 μM, relative to PMO oligomer 21, FIG. 18, listed as 24) was “did not significantly decrease; also recorded: did not significantly affect”.
“PNA oligomer 8: commercial PNA, F1-GTGGCCGTTTACGTCGCC-AAAAAA-NH2, SEQ ID NO. 2 (GTGGCCGTTTACGTCGCCAAAAAA; PNA, F1 label, C-amide, chemistry not fully specified)” was tested, and the “PS-dT8[3+] (dTtaPS)-mediated cellular internalization of fluoresceinated PNA oligomers” value [1] was “efficiently internalized”.
“PNA oligomer 9: commercial PNA, F1-CCTCTTACCTCAGTTACA-NH2, SEQ ID NO. 3 (all peptide nucleic acid (PNA), 5' {F1}; PNA with C-terminal amide, further chemistry not fully specified)” was tested, and the “PS-dT8[3+] (dTtaPS)-mediated cellular internalization of fluoresceinated PNA oligomers” value [1] was “not significantly internalized”.
“PNA oligomer 11: commercial PNA, negative control, H-GTGGCCGTTTACGTCGCC-AAAAAA-NH2, SEQ ID NO. 5 (GTGGCCGTTTACGTCGCCAAAAAA; all peptide nucleic acid (PNA); PNA with N-terminal H and C-terminal amide, further chemistry not fully specified)” was tested, and the “luciferase activity (splice correction) upon PS-dT8[3+] (dTtaPS)-assisted delivery of PNA oligomers” value (HeLa pLuc705 cells; PS-dT8[3+] 2 μM, listed as 11) was “failed, as expected for a negative control, to restore luciferase activity”.
For “PNA oligomer 12: commercial PNA, H-CCTCTTACCTCAGTTACA-NH2, SEQ ID NO. 6 (all peptide nucleic acid (PNA); PNA with N-terminal H and C-terminal amide, further chemistry not fully specified)”, the “luciferase activity (splice correction) upon PS-dT8[3+] (dTtaPS)-assisted delivery of PNA oligomers” value (HeLa pLuc705 cells; PS-dT8[3+] 2 μM) was “did not restore luciferase activity”.
For “PNA oligomer 15: commercial PNA, H-CCTCTTACCTCAGTTACA-TTTTTT-NH2, SEQ ID NO. 9 (CCTCTTACCTCAGTTACATTTTTT; all peptide nucleic acid (PNA); PNA with N-terminal H and C-terminal amide, further chemistry not fully specified)”, the “luciferase activity / internalization upon PS-dA8[3+] (dAtaPS)-mediated delivery of PNA oligomers” value (HeLa pLuc705 cells; listed as 15) was “about half the level of luciferase activity” and the “luciferase activity (splice correction) upon PS-dT8[3+] (dTtaPS)-assisted delivery of PNA oligomers” value (HeLa pLuc705 cells; PS-dT8[3+] 2 μM, listed as 15) was “did not result in significant production of luciferase activity; also recorded: did not lead to the production of luciferase activity”.
“PNA oligomer 16: commercial PNA, H-CCTCTTACCTCAGTTACA-CCCCCC-NH2, SEQ ID NO. 10 (CCTCTTACCTCAGTTACACCCCCC; all peptide nucleic acid (PNA), 3' {NH2}; further chemistry not fully specified)” was tested, and the “luciferase activity / internalization upon PS-dA8[3+] (dAtaPS)-mediated delivery of PNA oligomers” value (HeLa pLuc705 cells; listed as 16) was “failed to recognize and internalize” and the “luciferase activity (splice correction) upon PS-dT8[3+] (dTtaPS)-assisted delivery of PNA oligomers” value (HeLa pLuc705 cells; PS-dT8[3+] 2 μM, listed as 16) was “did not result in significant production of luciferase activity; also recorded: did not lead to the production of luciferase activity”.
With “PNA oligomer 17: commercial PNA, H-AAAAAA-CCTCTTACCTCAGTTACA-NH2, SEQ ID NO. 11 (AAAAAACCTCTTACCTCAGTTACA; all peptide nucleic acid (PNA); PNA with N-terminal H and C-terminal amide, further chemistry not fully specified)” the “luciferase activity / internalization upon PS-dA8[3+] (dAtaPS)-mediated delivery of PNA oligomers” value (HeLa pLuc705 cells; listed as 17) was “failed to recognize and internalize” and the “luciferase activity (splice correction) upon PS-dT8[3+] (dTtaPS)-assisted delivery of PNA oligomers” value (HeLa pLuc705 cells; PS-dT8[3+] 2 μM) was “did not significantly affect”.
